One assay addresses 11β-HSD1 (Homo sapiens (Human), UniProt P28845). Kind of assay: 11β-hydroxysteroid dehydrogenase (HSD) 1 Assay (Assay 2), HTRF. In kind it is biochemical. Conditions: for IC50: human liver microsomes, cortisol generated from cortisone, HTRF, read-out: 11βHSD1 IC50. As for the experimental part:
The compounds of this invention or the physiological acceptable salts thereof were tested for their inhibitory effect on the enzyme 11β-hydroxysteroid dehydrogenase (HSD) 1.
B. 11β-hydroxysteroid dehydrogenase (HSD) 1 Assay (Assay 2)
Compounds were incubated for 1 hour at 37° C. in Tris buffer (20 mM tris, 5 mM EDTA, pH 6.0) containing NADPH (200 μM) and cortisone (80 nM). Cortisol generated in the reaction was then detected by a competitive immunoassay involving two HTRF conjugates: cortisol linked to XL665 and anticortisol antibody labeled with Europium cryptate. The incubation period for detection reaction was 2 hours. The amount of cortisol is determined by reading the time-resolved fluorescence of the wells (Ex 320/75 nm; Em 615/8.5 nm and 665/7.5 nm). The ratio of the two emission signals was then calculated (Em665*10000/Em615). […] Each assay also comprised a calibration curve with cortisol to transform the fluorescent data into cortisol concentrations.
Percent inhibition (% CTL) of each compound is determined relative to the carbenoxolone signal and IC50 curves were generated.
For orientation: In TR-FRET formats the signal depends on donor and acceptor labels being close together.

The next assay concerns the target human mGlu5a receptor (Homo sapiens (Human), UniProt P41594). In words: mGlu5 NAM FLIPR Assay (Assay 1). As to conditions: for IC50: HEK293 cells stably expressing human mGlu5a, antagonism of EC90 glutamate, [Ca]i. The assay is classed as cell-based. As for the experimental part: A. mGlu5 NAM FLIPR Assay (Assay 1)
Activation of the mGluR5 receptor expressed in cell lines results in an increase in intracellular calcium concentration. Using calcium sensitive fluorescent dyes and a suited fluorescence plate reader this functional response is detectable and quantifiable. This technique could be used to characterize pharmacological modifications of the mGluR5 receptor.
[Ca]i measurements were performed in HEK293 cells stably expressing the full-length human mGlu5a receptor under the control of a tet-regulated promoter. Cells were cultivated in Dulbecco's modified eagle's medium (DMEM) with 10% fetal calf serum, 100 μg/ml HygromycinB, 500 μg/ml G418 and 2 μg/ml Tetracycline in a 37°, 95% humidity and 5% CO2 incubator. Confluent cell cultures were split on a bi-weekly schedule.
72 hours prior to the assay run mGluR5a expression was induced by replacing the culture medium by DMEM with 10% fetal calf serum without antibiotics. 24 hours prior to the assay run, cell medium was replaced after two wash steps by DMEM, 10% fetal calf serum without glutamine and phenol red. On the assay day, cells were detached from the culture flask by versene, washed, resuspended in a modified Ringer solution with 5 mM Glucose and 10 mM HEPES pH7.4, and plated on Poly-D-Lysine coated 384-well plates with a density of 10.000 cells/60 μl per well. After a seeding time of 1 hour in the incubator the cells were dye-loaded by adding 20 μl of a 4-fold concentrated dye solution from the Calcium 4 kit (Molecular Devices Inc., R8141) according to the manufacturer's manual and incubated for an additional 100 minutes. Compounds were prepared by a 11 point serial dilution in DMSO and a final dilution step into assay puffer (modified Ringer) to ensure a final DMSO concentration of 1% in the assay.
Measurements were done in a two-step procedure. A first measurement was performed directly after the addition of compounds to the cell plates to quantify and correct for compound related non specific effects (e.g. auto fluorescence). 5 minutes later, the antagonistic activities of the compounds were measured by addition of a EC90 concentration of the agonist glutamate (the EC90 concentration was controlled by glutamate dose-response curves). All measurements were done with a fluorimetric imaging plate reader (FLIPR, Molecular Devices Inc.).
IC50 values and Hill slopes were derived from 11-point four parametric non-linear curve fittings with the AssayExplorer software using peak heights of fluorescence signals.

Sequence of human mGlu5a receptor (P41594 other isoform, or with tags, fused parts or gaps): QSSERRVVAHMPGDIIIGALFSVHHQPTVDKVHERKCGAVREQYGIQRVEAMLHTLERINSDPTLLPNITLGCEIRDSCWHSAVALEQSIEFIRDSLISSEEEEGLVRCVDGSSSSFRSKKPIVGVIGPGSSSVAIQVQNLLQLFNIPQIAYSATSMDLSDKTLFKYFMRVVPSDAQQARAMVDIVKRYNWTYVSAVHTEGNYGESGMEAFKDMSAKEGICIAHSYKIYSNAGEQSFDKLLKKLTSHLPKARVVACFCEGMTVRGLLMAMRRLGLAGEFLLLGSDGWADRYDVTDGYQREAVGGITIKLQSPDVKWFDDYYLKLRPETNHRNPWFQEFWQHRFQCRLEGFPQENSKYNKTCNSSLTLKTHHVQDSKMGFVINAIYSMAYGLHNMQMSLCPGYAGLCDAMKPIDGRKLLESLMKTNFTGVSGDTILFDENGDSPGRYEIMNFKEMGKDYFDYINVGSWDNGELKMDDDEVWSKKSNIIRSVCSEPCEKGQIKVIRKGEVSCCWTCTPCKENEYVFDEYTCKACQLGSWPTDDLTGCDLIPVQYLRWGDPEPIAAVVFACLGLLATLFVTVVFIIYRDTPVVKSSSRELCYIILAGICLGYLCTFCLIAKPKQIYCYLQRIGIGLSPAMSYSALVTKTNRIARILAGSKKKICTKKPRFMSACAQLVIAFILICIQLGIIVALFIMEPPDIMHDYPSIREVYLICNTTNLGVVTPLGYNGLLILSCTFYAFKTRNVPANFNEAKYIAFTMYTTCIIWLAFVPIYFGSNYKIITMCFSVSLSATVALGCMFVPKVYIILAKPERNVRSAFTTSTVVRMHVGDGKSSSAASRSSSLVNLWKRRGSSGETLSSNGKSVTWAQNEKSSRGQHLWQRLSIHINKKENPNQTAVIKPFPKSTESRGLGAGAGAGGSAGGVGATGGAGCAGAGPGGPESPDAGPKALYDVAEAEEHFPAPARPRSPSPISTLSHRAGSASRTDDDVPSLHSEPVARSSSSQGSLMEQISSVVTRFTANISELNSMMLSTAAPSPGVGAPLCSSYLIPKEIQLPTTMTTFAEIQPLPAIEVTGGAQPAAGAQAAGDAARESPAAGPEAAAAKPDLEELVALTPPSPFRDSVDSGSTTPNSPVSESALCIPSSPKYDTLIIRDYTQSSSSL
Sequence of 11β-HSD1 (P28845 whole entry): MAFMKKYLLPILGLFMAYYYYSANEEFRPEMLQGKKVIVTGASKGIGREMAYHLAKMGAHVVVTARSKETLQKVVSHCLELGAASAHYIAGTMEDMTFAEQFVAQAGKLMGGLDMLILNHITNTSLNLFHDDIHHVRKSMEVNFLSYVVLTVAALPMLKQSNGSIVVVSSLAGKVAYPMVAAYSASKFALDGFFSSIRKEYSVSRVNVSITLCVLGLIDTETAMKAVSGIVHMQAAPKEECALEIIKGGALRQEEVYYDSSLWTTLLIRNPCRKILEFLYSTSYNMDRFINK

For the compound `O=C(c1cc2ncc(Br)cn2n1)N1CCCC1` [A, reference compound], at 11β-HSD1, the “activity on 11βHSD1 (assay 2), in words” value was “inactivity”. For the same compound, on human mGlu5a receptor, the “activity in assay 1 (mGlu5), in words” value is listed as “inactivity” and the half-inhibitory concentration (IC50) – broadly, the concentration that inhibits the measured activity by half – was over 10 µM.
Turning to `O=C(c1cc2ncc(Br)cn2n1)N1CCCCCC1` [B, reference compound], on 11β-HSD1, the “activity on 11βHSD1 (assay 2), in words” value is listed as “inactivity” and the concentration for half-maximal inhibition (IC50) was over 10 µM. Besides, on human mGlu5a receptor, the “activity in assay 1 (mGlu5), in words” value is “inactivity” and the half-inhibitory concentration (IC50) is over 10 µM.
`COc1ccc(-c2cc(C(F)(F)F)n3nc(C(=O)N4CCc5ncsc5CC4)cc3n2)cc1` [C, reference compound]: the IC50 at 11β-HSD1 and on human mGlu5a receptor was over 10 µM throughout.
Consider `Cc1cc(C(F)(F)F)n2nc(C(=O)N3CCc4ncsc4CC3)cc2n1` [D, reference compound], for which the IC50 on 11β-HSD1 and against human mGlu5a receptor was over 10 µM throughout.
On to `COc1cccc(-c2cc(C(F)(F)F)n3nc(C(=O)N4CCc5ncsc5CC4)cc3n2)c1` [E, reference compound], for which the IC50 at 11β-HSD1 and at human mGlu5a receptor was over 10 µM throughout.
`O=C(c1cc2ncc(Br)cn2n1)N1CCc2ccc(Cl)nc2CC1` [Example 1, (6-Bromo-pyrazolo[1,5-a]pyrimidin-2-yl)-(2-chloro-5,6,8,9-tetrahydro-pyrido[2,3-d]azepin-7-yl)-methanone]: the concentration for half-maximal inhibition (IC50) on 11β-HSD1 is over 10 µM; on human mGlu5a receptor it was 0.146 µM.
The like results for `COc1ccc2c(n1)CCN(C(=O)c1cc3ncc(Br)cn3n1)CC2` [Example 2, (6-Bromo-pyrazolo[1,5-a]pyrimidin-2-yl)-(2-methoxy-5,6,8,9-tetrahydro-pyrido[2,3-d]azepin-7-yl)-methanone] were, in that order, over 10 µM and 0.23 µM.
The like results for `O=C(c1cc2ncc(Br)cn2n1)N1CCc2ccsc2CC1` [Example 3, (6-Bromo-pyrazolo[1,5-a]pyrimidin-2-yl)-(4,5,7,8-tetrahydro-thieno[2,3-d]azepin-6-yl)-methanone] were, in that order, over 10 µM and 1.39 µM.
In the same order, the values of `CCc1nc2c(s1)CCN(C(=O)c1cc3ncc(Br)cn3n1)CC2` [Example 4, (6-Bromo-pyrazolo[1,5-a]pyrimidin-2-yl)-(2-ethyl-4,5,7,8-tetrahydro-thiazolo[4,5-d]azepin-6-yl)-methanone] are over 10 µM and 0.033 µM.
On to `O=C(c1cc2ncc(Br)cn2n1)N1CCCCC1` [Example 4-21, reference compound], for which the IC50 at 11β-HSD1 and against human mGlu5a receptor was over 10 µM in each case.
As to `O=C(c1cc2ncc(Br)cn2n1)N1CCOCC1` [Example 4-22, reference compound], the IC50 at 11β-HSD1 and against human mGlu5a receptor was over 10 µM in each case.
In the case of `O=C(c1cc2ncc(Br)cn2n1)N1CCc2ncsc2CC1` [Example 5, (6-Bromo-pyrazolo[1,5-a]pyrimidin-2-yl)-(4,5,7,8-tetrahydro-thiazolo[4,5-d]azepin-6-yl)-methanone], the IC50 at 11β-HSD1 was over 10 µM; against human mGlu5a receptor, 0.11 µM.
On to `O=C(c1cc2ncc(Br)cn2n1)N1CCc2cc(Cl)nnc2CC1` [Example 7, (6-Bromo-pyrazolo[1,5-a]pyrimidin-2-yl)-(3-chloro-5,6,8,9-tetrahydro-1,2,7-triaza-benzocyclohepten-7-yl)-methanone], for which the 50% inhibitory concentration (IC50) is over 10 µM at 11β-HSD1 and 0.34 µM against human mGlu5a receptor.
For `COCc1nc2c(s1)CCN(C(=O)c1cc3ncc(Br)cn3n1)CC2` [Example 8, (6-Bromo-pyrazolo[1,5-a]pyrimidin-2-yl)-(2-methoxymethyl-4,5,7,8-tetrahydro-thiazolo[4,5-d]azepin-6-yl)-methanone], the half-maximal inhibitory concentration (IC50) on 11β-HSD1 was over 10 µM; on human mGlu5a receptor, 1.54 µM.
For `Cc1cnc2cc(C(=O)N3CCc4ncsc4CC3)nn2c1` [Example 9], the IC50 at 11β-HSD1 is over 10 µM; on human mGlu5a receptor it was 1.42 µM.
Take `O=C(c1cc2ncc(Cl)cn2n1)N1CCc2ncsc2CC1` [Example 10, (6-Chloro-pyrazolo[1,5-a]pyrimidin-2-yl)-(4,5,7,8-tetrahydro-thiazolo[4,5-d]azepin-6-yl)-methanone]: the IC50 at 11β-HSD1 is over 10 µM; against human mGlu5a receptor it was 0.059 µM.
In the same order, the values of `O=C(c1cc2ncc(Br)cn2n1)N1CCc2[nH]c(=O)sc2CC1` [Example 11, 6-(6-Bromo-pyrazolo[1,5-a]pyrimidine-2-carbonyl)-3,4,5,6,7,8-hexahydro-thiazolo[4,5-d]azepin-2-one] are over 10 µM and 0.066 µM.
The like results for `CC(C)c1nc2c(s1)CCN(C(=O)c1cc3ncc(Br)cn3n1)CC2` [Example 12, (6-Bromo-pyrazolo[1,5-a]pyrimidin-2-yl)-(2-isopropyl-4,5,7,8-tetrahydro-thiazolo[4,5-d]azepin-6-yl)-methanone] were, in that order, over 10 µM and 0.148 µM.
The like results for `Cc1nc2c(s1)CCN(C(=O)c1cc3ncc(Cl)cn3n1)CC2` [Example 13, (6-Chloro-pyrazolo[1,5-a]pyrimidin-2-yl)-(2-methyl-4,5,7,8-tetrahydro-thiazolo[4,5-d]azepin-6-yl)-methanone] were, in that order, over 10 µM and 0.063 µM.
With `O=C(c1cc2ncc(Br)cn2n1)N1CCc2cccnc2CC1` [Example 14, (6-Bromo-pyrazolo[1,5-a]pyrimidin-2-yl)-(5,6,8,9-tetrahydro-pyrido[2,3-d]azepin-7-yl)-methanone], the values for the IC50 at 11β-HSD1 and against human mGlu5a receptor were over 10 µM and 0.603 µM, respectively.
Take `Cn1cnc2c1CCN(C(=O)c1cc3ncc(Br)cn3n1)CC2` [Example 15, (6-Bromo-pyrazolo[1,5-a]pyrimidin-2-yl)-(1-methyl-4,5,7,8-tetrahydro-1H-imidazo[4,5-d]azepin-6-yl)-methanone]: the IC50 was over 10 µM on 11β-HSD1 and 0.692 µM against human mGlu5a receptor.
In the same order, the values of `Cn1c2c(sc1=O)CCN(C(=O)c1cc3ncc(Br)cn3n1)CC2` [Example 16, 6-(6-Bromo-pyrazolo[1,5-a]pyrimidine-2-carbonyl)-3-methyl-3,4,5,6,7,8-hexahydro-thiazolo[4,5-d]azepin-2-one] are over 10 µM and 1.28 µM.
In the same order, the values of `Cn1c2c(c3ccccc31)CCN(C(=O)c1cc3ncc(Br)cn3n1)CC2` [Example 17, (6-Bromo-pyrazolo[1,5-a]pyrimidin-2-yl)-(6-methyl-1,4,5,6-tetrahydro-2H-azepino[4,5-b]indol-3-yl)-methanone] are over 10 µM and 0.55 µM.
For `CC(C)c1nc2c(s1)CCN(C(=O)c1cc3ncc(Cl)cn3n1)CC2` [Example 18, (6-Chloro-pyrazolo[1,5-a]pyrimidin-2-yl)-(2-isopropyl-4,5,7,8-tetrahydro-thiazolo[4,5-d]azepin-6-yl)-methanone], at human mGlu5a receptor, the midpoint of inhibition, the IC50, lay at 0.235 µM.
On human mGlu5a receptor, `O=C(c1cc2ncc(Cl)cn2n1)N1CCc2[nH]c(=O)sc2CC1` [Example 19, 6-(6-Chloro-pyrazolo[1,5-a]pyrimidine-2-carbonyl)-3,4,5,6,7,8-hexahydro-thiazolo[4,5-d]azepin-2-one] gave an IC50 of 0.128 µM.
On to “(6-Bromo-pyrazolo[1,5-a]pyrimidin-2-yl)-(2-methyl-4,5,7,8-tetrahydro-3H-1lambda*4*-thiazolo[4,5-d]azepin-6-yl)-methanone [Example 6]”, for which the IC50 at 11β-HSD1 is over 10 µM; against human mGlu5a receptor, 0.043 µM.

Source of the values: patent publication US9029360B2, “Pyrazolopyrimidines as metabotropic glutamate 5 receptor antagonists” (Boehringer Ingelheim International GmbH, priority 2012, dated 2015).
